Measurements: patent US10167262B2, “Herbicidal substituted 3-arylpyrazoles” (FMC CORPORATION, priority 2014, dated 2019)
Where two headings read alike, the source gives them in different places.

Assays:
Type in all cases: in vivo
[1] = test system: pigweed (Amaranthus retroflexus); assay: Test C pre-/postemergence greenhouse test, plant response rating 0-100; details: Amaranthus retroflexus; for pest or weed control at 125 g/ha: 125 g ai/ha; for pest or weed control at 250 g/ha: 250 g ai/ha; for pest or weed control at 500 g/ha: 500 g ai/ha
Description: (§1) Seeds of plant species selected from blackgrass (Alopecurus myosuroides), Italian ryegrass (Lolium multiflorum), winter wheat (Triticum aestivum), galium (catchweed bedstraw, Galium aparine), corn (Zea mays), large (Lg) crabgrass (Digitaria sanguinalis), giant foxtail (Setaria faberii), johnsongrass (Sorghum halepense), lambsquarters (Chenopodium album), morningglory (Ipomoea coccinea), yellow nutsedge (Cyperus esculentus), pigweed (Amaranthus retroflexus), ragweed (common ragweed, Ambrosia elatior), soybean (Glycine max), barnyardgrass (Echinochloa crus-galli), oilseed rape (Brassica napus), waterhemp (common waterhemp, Amaranthus rudis), and velvetleaf (Abutilon theophrasti) were planted into a blend of loam soil and sand and treated preemergence with test chemicals formulated in a non-phytotoxic solvent mixture which included a surfactant.
(§2) At the same time, plants selected from these crop and weed species and also winter barley (Hordeum vulgare), bermudagrass (Cynodon dactylon), downy bromegrass (Bromus tectorum), canarygrass (Phalaris minor), cocklebur (common cocklebur, Xanthium strumarium), woolly cupgrass (Eriochloa villosa), deadnettle (henbit deadnettle, Lamium amplexicaule), green foxtail (Setaria viridis), goosegrass (Eleusine indica), surinam grass (Brachiaria decumbens), windgrass (Apera spica-venti), chickweed (common chickweed, Stellaria media), kochia (Kochia scoparia), and wild oat (Avena fatua), were planted in pots containing Redi-Earth® planting medium (Scotts Company, 14111 Scottslawn Road, Marysville, Ohio 43041) comprising spaghnum peat moss, vermiculite, wetting agent and starter nutrients and treated with postemergence applications of test chemicals formulated in the same manner. Plants ranged in height from 2 to 18 cm (1- to 4-leaf stage) for postemergence treatments. Treated plants and controls were maintained in a greenhouse for 13 to 15 days, after which time all species were compared to controls and visually evaluated. Plant response ratings, summarized in Table C, are based on a scale of 0 to 100 where 0 is no effect and 100 is complete control. A dash (-) response means no test result.

[2] = test system: ragweed (common ragweed, Ambrosia elatior); assay: as above; details: Ambrosia artemisiifolia; for pest or weed control at 62 g/ha: 62 g ai/ha; for pest or weed control at 125 g/ha: 125 g ai/ha; for pest or weed control at 250 g/ha: 250 g ai/ha
Description: as §1, §2

soybean (Glycine max) = assay: as above; details: Glycine max; for plant injury at 62 g/ha: 62 g ai/ha; for plant injury at 125 g/ha: 125 g ai/ha; for plant injury at 250 g/ha: 250 g ai/ha; for plant injury at 500 g/ha: 500 g ai/ha
Description: as §1, §2

[3] = test system: winter wheat (Triticum aestivum); assay: as above; details: Triticum aestivum; for plant injury at 62 g/ha: 62 g ai/ha; for plant injury at 125 g/ha: 125 g ai/ha; for plant injury at 250 g/ha: 250 g ai/ha; for plant injury at 500 g/ha: 500 g ai/ha
Description: as §1, §2

[4] = test system: yellow nutsedge (Cyperus esculentus); assay: as above; details: Cyperus; for pest or weed control at 62 g/ha: 62 g ai/ha; for pest or weed control at 125 g/ha: 125 g ai/ha; for pest or weed control at 250 g/ha: 250 g ai/ha; for pest or weed control at 500 g/ha: 500 g ai/ha
Description: as §1, §2

[5] = test system: chickweed (common chickweed, Stellaria media); assay: Test C postemergence greenhouse test, plant response rating 0-100; details: Stellaria media, post-emergence
Description: as §2

kochia (Kochia scoparia) = assay: as above; details: Bassia scoparia, post-emergence
Description: as §2

wild oat (Avena fatua) = assay: as above; details: Avena fatua, post-emergence
Description: as §2

[6] = post-emergence, Postemergence, scale 0 to 100
[7] = post-emergence, Postemergence, read-out: Plant response rating (0 to 100), Ragweed
[8] = pre-emergence, Preemergence, read-out: Plant response rating, Ragweed
[9] = post-emergence, Postemergence, read-out: Plant response rating (0 to 100), Soybean
[10] = pre-emergence, Preemergence, read-out: Plant response rating, Soybean
[11] = post-emergence, Postemergence, read-out: Plant response rating (0 to 100), Wheat
[12] = pre-emergence, Preemergence, read-out: Plant response rating, Wheat
[13] = post-emergence, Postemergence, read-out: Plant response rating (0 to 100), Nutsedge, Yellow
[14] = pre-emergence, Preemergence, read-out: Plant response rating, Nutsedge, Yellow

Question: How did the pest or weed control at 125 g/ha ([1]; post-emergence, Postemergence, read-out: Plant response rating (0 to 100), Pigweed) turn out when `COC(OC)(c1ccccc1)c1c[nH]nc1-c1cc(Cl)cc(Cl)c1` [Compound 13, 3-(3,5-dichlorophenyl)-4-(dimethoxyphenylmethyl)-1H-pyrazole] was run?
Answer: 100%

Question: What about the pest or weed control at 250 g/ha [1, 6] of the same molecule?
Answer: 100%

Question: And the pest or weed control at 500 g/ha [1, 6]?
Answer: 100%

Question: What about the pest or weed control at 62 g/ha ([1]; pre-emergence, Preemergence, 62 g ai/ha, read-out: Plant response rating, Pigweed) of the same molecule?
Answer: 90%

Question: What about the pest or weed control at 125 g/ha ([1]; pre-emergence, Preemergence, read-out: Plant response rating, Pigweed) of the same molecule?
Answer: 100%

Question: And the pest or weed control at 250 g/ha ([1]; pre-emergence, Preemergence)?
Answer: 100%

Question: And the pest or weed control at 500 g/ha ([1]; pre-emergence, Preemergence)?
Answer: 100%

Question: What about the pest or weed control at 62 g/ha [2, 7] of the same molecule?
Answer: 50%

Question: What about the pest or weed control at 125 g/ha [2, 7] of the same molecule?
Answer: 50%

Question: What about the pest or weed control at 250 g/ha [2, 6] of the same molecule?
Answer: 75%

Question: And the pest or weed control at 500 g/ha ([2]; post-emergence, Postemergence, 500 g ai/ha, scale 0 to 100)?
Answer: 80%

Question: What about the pest or weed control at 62 g/ha [2, 8] of the same molecule?
Answer: 85%

Question: And the pest or weed control at 125 g/ha [2, 8]?
Answer: 100%

Question: And the pest or weed control at 250 g/ha ([2]; pre-emergence, Preemergence)?
Answer: 100%

Question: And the plant injury at 62 g/ha (soybean (Glycine max); [9])?
Answer: 0%

Question: And the plant injury at 125 g/ha (soybean (Glycine max); [9])?
Answer: 0%

Question: What about the plant injury at 250 g/ha (soybean (Glycine max); [6]) of the same molecule?
Answer: 0%

Question: And the plant injury at 500 g/ha (soybean (Glycine max); [6])?
Answer: 10%

Question: And the plant injury at 62 g/ha (soybean (Glycine max); [10])?
Answer: 0%

Question: What about the plant injury at 125 g/ha (soybean (Glycine max); [10]) of the same molecule?
Answer: 0%

Question: What about the plant injury at 250 g/ha (soybean (Glycine max); pre-emergence, Preemergence) of the same molecule?
Answer: 75%

Question: And the plant injury at 500 g/ha (soybean (Glycine max); pre-emergence, Preemergence)?
Answer: 60%

Question: What about the plant injury at 62 g/ha [3, 11] of the same molecule?
Answer: 0%

Question: And the plant injury at 125 g/ha [3, 11]?
Answer: 0%

Question: What about the plant injury at 250 g/ha [3, 6] of the same molecule?
Answer: 0%

Question: And the plant injury at 500 g/ha [3, 6]?
Answer: 0%

Question: What about the plant injury at 62 g/ha [3, 12] of the same molecule?
Answer: 0%

Question: What about the plant injury at 125 g/ha [3, 12] of the same molecule?
Answer: 0%

Question: And the plant injury at 250 g/ha ([3]; pre-emergence, Preemergence)?
Answer: 0%

Question: And the plant injury at 500 g/ha ([3]; pre-emergence, Preemergence)?
Answer: 0%

Question: What about the pest or weed control at 62 g/ha [4, 13] of the same molecule?
Answer: 0%

Question: And the pest or weed control at 125 g/ha [4, 13]?
Answer: 0%

Question: And the pest or weed control at 250 g/ha [4, 6]?
Answer: 0%

Question: And the pest or weed control at 500 g/ha [4, 6]?
Answer: 0%

Question: And the pest or weed control at 62 g/ha [4, 14]?
Answer: 0%

Question: What about the pest or weed control at 125 g/ha [4, 14] of the same molecule?
Answer: 0%

Question: And the pest or weed control at 250 g/ha ([4]; pre-emergence, Preemergence)?
Answer: 0%

Question: What about the pest or weed control at 500 g/ha ([4]; pre-emergence, Preemergence) of the same molecule?
Answer: 0%

Question: What about the pest or weed control at 62 g/ha ([5]; 62 g ai/ha) of the same molecule?
Answer: 100%

Question: And the pest or weed control at 125 g/ha ([5]; 125 g ai/ha)?
Answer: 85%

Question: What about the pest or weed control at 250 g/ha ([5]; 250 g ai/ha, scale 0 to 100) of the same molecule?
Answer: 100%

Question: And the pest or weed control at 500 g/ha ([5]; 500 g ai/ha, scale 0 to 100)?
Answer: 100%

Question: And the pest or weed control at 62 g/ha (kochia (Kochia scoparia); 62 g ai/ha)?
Answer: 85%

Question: And the pest or weed control at 125 g/ha (kochia (Kochia scoparia); 125 g ai/ha)?
Answer: 80%

Question: What about the pest or weed control at 250 g/ha (kochia (Kochia scoparia); 250 g ai/ha, scale 0 to 100) of the same molecule?
Answer: 85%

Question: And the pest or weed control at 500 g/ha (kochia (Kochia scoparia); 500 g ai/ha, scale 0 to 100)?
Answer: 90%

Question: What about the pest or weed control at 62 g/ha (wild oat (Avena fatua); 62 g ai/ha) of the same molecule?
Answer: 0%

Question: What about the pest or weed control at 125 g/ha (wild oat (Avena fatua); 125 g ai/ha) of the same molecule?
Answer: 0%

Question: And the pest or weed control at 250 g/ha (wild oat (Avena fatua); 250 g ai/ha, scale 0 to 100)?
Answer: 0%

Question: What about the pest or weed control at 500 g/ha (wild oat (Avena fatua); 500 g ai/ha, scale 0 to 100) of the same molecule?
Answer: 5%
